Series [1] in a line: DPPH free radical scavenging assay. The note with it: for DPPH IC50: 30 min, 517 nm. As for the experimental part: The free radical scavenging activities of the extracts, peperomin A and phytosterol mixture were estimated using the 1,1-diphenyl-2-picryl-hydrazyl (DPPH) assay. Quantitative estimation was done in 96-well ELISA plates in triplicate. Complete of 70 µL of DMSO was brought for each well followed by 100 µL of plant extract solution or isolated tested compounds. Various concentrations of each extract and peperomin A (15.6 –1,000 µg/mL) were used. Similar concentrations of ascorbic acid were used as positive control. A total of 30 µL DPPH (3.14 X 10^−3 µM) was added to each well, then the plate was allowed to stand in the dark at 25 °C for 30 min, and the absorbance was later recorded taken at 517 nm. The free radical scavenging activity was calculated using the following equation: Free radical scavenging activity%=Abs of DPPH−Abs of sample∕Abs of DPPH×100%. where Abs is absorbance. The relationship between each concentration and its scavenging percentage was plotted, and the IC50 value was calculated by interpolation. Scavenging activity was represented by IC50 values (the extract concentration that scavenges 50% of DPPH radicals).
(In general: DPPH is a stable violet radical that fades when it is reduced.)

Series [2] can be described thus: FRAP ferric reducing assay. The settings on record: for FRAP: 593 nm. As for the experimental part: The antioxidant power of P. blanda extracts by ferric reduction was done by preparing fresh FRAP reagent from acetate buffer (pH 3.6), a solution of 10 mM TPTZ (2,4,6-tri(2-pyridyl)-s-triazine) in 40 mM HCl and a solution of 20 mM iron (III) chloride in a ratio of 10:1:1 (%v/v) ([Brand-Williams, Cuvelier & Berset, 1995]; [Mohammadzadeh et al., 2007]; [Mothana et al., 2009]; [Salazar-Aranda et al., 2011]), butylated hydroxytoluene (BHT), and ascorbic acid were used as controls. Then, 10 µL of plant extracts, peperomin A, ferrous sulfate (standard) and the controls were added to 300 µL FRAP reagent (triplicate) in the dark and the absorbance was measured at 593 nm. A linear standard curve was constructed using […] FeSO4. The results were represented as the ratio of the concentration of iron(III) mM over the extract dry weight (g).

Series [3] has as its system murine myelomonocytic leukaemia (WEHI-3). As to the kind of experiment: MTT cytotoxicity assay, WEHI-3. The settings on record: Mus musculus. The class given is cell-based. The text has this: (§1) In vitro cytotoxic potency of the investigated extracts was established using the colorimetric (MTT) assay. The three cancer cell lines involved were the human breast adenocarcinoma (MCF-7), murine myelomonocytic leukaemia (WEHI-3) and human promyelocytic leukaemia (HL-60). The three normal cell lines used were the human mammary epithelial cell line (MCF10A), primary dermal fibroblasts cell line (HDFa) and the human hepatic cell line (WRL-68). All cells were from American Type Culture Collection (ATCC) and were subcultured in tissue culture flask (75 cm) with RPMI1640 media mixed with 10% fetal bovine serum and 1% penicillin–streptomycin and kept in an incubator at 5% of CO2 saturation and 37 °C. The following solutions were prepared: crude extracts (dissolved in 1% DMSO) at various concentrations (100, 50, 25, 12.5, 6.3, 3.5, 1.5 and 0 µg/mL); and peperomin A, phytosterol mixture and standard drugs (Taxol and vinblastine) as positive controls at decreasing concentrations (50, 25, 12.5, 6.3, 3.5, 1.5, and 0 µg/mL). N,N′-diphenethyloxamide was not involved in the biological assay because of the low yield obtained. Extracts were incubated with the cancer cell lines for 72 h, and peperomin A and the phytosterol mixture were incubated for 24, 48 and 72 h. After the incubation periods, 20 µL of MTT solution (5 mg/mL) was added to each well and incubated for 4 h. To dissolve the formazan crystals formed, 100 µL of DMSO was added to each well. The IC50 values were calculated from the plot of cancer cell growth versus the concentration of extracts/compounds.

Series [4] has as its system human promyelocytic leukaemia (HL-60). As to the kind of experiment: MTT cytotoxicity assay, HL-60. The class given is cell-based.
Excerpt: as §1

Series [5] concerns human breast adenocarcinoma (MCF-7). In words: MTT cytotoxicity assay, MCF-7. Type of series: cell-based. The note with it: for IC50: Homo sapiens; for Selectivity index: ratio of mean IC50 in normal MCF10a over mean IC50 in MCF-7: Table 4.
Excerpt: as §1
For orientation: Tetrazolium dyes change colour on reduction, which living cells bring about.

For series [6], the system named is human hepatic cell line (WRL-68). In words: MTT cytotoxicity assay, normal WRL-68. Type of series: cell-based. The settings on record: normal cells.
Excerpt: as §1

Series [7] concerns primary dermal fibroblasts cell line (HDFa). As to the kind of experiment: MTT cytotoxicity assay, normal HDFa. The class given is cell-based. The note with it: Homo sapiens, normal cells.
Excerpt: as §1

For series [8], the system named is human mammary epithelial cell line (MCF10A). In words: MTT cytotoxicity assay, normal MCF10A. Type of series: cell-based. The settings on record: MCF-10A, normal cells.
Excerpt: as §1

Series [9] deals with HIV-1 IIIB. The note with it: no reference given; cited from earlier work.
The subject of series [10] is C8166 cell line. The note with it: no reference given; cited from earlier work.

Consider six molecules from publication PMC5994333, “-Chemical profiling and biological activity of Peperomia blanda (Jacq.) Kunth” (PeerJ, 2018).

Values after ≈ are worked out from the molar mass of the structure shown.

Regarding `Cc1cc(C(C)(C)C)c(O)c(C(C)(C)C)c1` [BHT, butylated hydroxytoluene], the “DPPH IC50” value in [1] was found to be 286.64 ± 8.54 µg/mL. Also, in [2], the FRAP is reported as 1738.80 ± 9.53 M Fe(II)/g.

By IC50 is commonly meant the concentration that gives 50% inhibition. The low end stands for inhibition by little substance, the high end for a need for much substance. For the molecule `CC(=O)O[C@H]1C(=O)[C@@]2(C)[C@H]([C@H](OC(=O)c3ccccc3)[C@]3(O)C[C@H](OC(=O)[C@H](O)[C@@H](NC(=O)c4ccccc4)c4ccccc4)C(C)=C1C3(C)C)[C@]1(OC(C)=O)CO[C@@H]1C[C@@H]2O` [Paclitaxel], the IC50 in series [3] (24 hr) came to 3.16 ± 0.02 µg/mL (≈ 3.7 µM); in series [3] (48hr), 2.15 ± 0.02 µg/mL (≈ 2.52 µM); in [3] (72hr) it was 1.9 ± 0.9 µg/mL (≈ 2.23 µM); in [4] (HL-60, 24 h, 24 hr), 12.7 ± 0.4 µg/mL (≈ 14.9 µM); in series [4] (HL-60, 48 h, 48hr), 8.67 ± 0.76 µg/mL (≈ 10.2 µM); in series [4] (HL-60, 72 h, 72hr), 5.13 ± 0.32 µg/mL (≈ 6.01 µM). Besides, the IC50 in series [5] (MCF7, 24 h, 24 hr) is 5.87 ± 0.19 µg/mL (≈ 6.87 µM); in series [5] (MCF7, 48 h, 48hr) it was 4.47 ± 0.03 µg/mL (≈ 5.23 µM); in [5] (MCF7, 72 h, 72hr) it was 3.56 ± 0.34 µg/mL (≈ 4.17 µM); in series [5] (MCF7, 72 h, 72 hr, Table 3), 3 ± 0.07 µg/mL (≈ 3.51 µM); in series [6] (WRL68, 24 hr), more than 50 µg/mL; in series [6] (WRL68, 48hr), more than 50 µg/mL. Further, the IC50 in [6] (WRL68, 72hr) was more than 50 µg/mL; in series [7] (24 hr) it was more than 50 µg/mL; in [7] (48hr), more than 50 µg/mL; in series [7] (72hr), more than 50 µg/mL; in series [8] (24 hr) it was more than 50 µg/mL; in series [8] (48hr) it was more than 50 µg/mL. The same molecule registered an IC50 in series [8] (72hr) of more than 50 µg/mL.

`COc1cc(C(c2cc(OC)c3c(c2)OCO3)[C@@H]2COC(=O)[C@H]2C)cc2c1OCO2` [Peperomin A]: the IC50 in series [3] (24 hr) was found to be 20.1 ± 0.46 µg/mL (≈ 48.5 µM); in series [3] (48hr), 18.7 ± 0.73 µg/mL (≈ 45.1 µM); in series [3] (72hr) it was 4.62 ± 0.03 µg/mL (≈ 11.1 µM); in series [4] (HL-60, 24 h, 24 hr), 43.62 ± 0.1 µg/mL (≈ 105 µM); in series [4] (HL-60, 48 h, 48hr), 26.34 ± 0.26 µg/mL (≈ 63.6 µM); in [4] (HL-60, 72 h, 72hr), 16.4 ± 0.62 µg/mL (≈ 39.5 µM). The IC50 is 40.7 ± 0.92 µg/mL (≈ 98.3 µM) in series [5] (MCF7, 24 h, 24 hr); 9.22 ± 0.28 µg/mL (≈ 22.2 µM) in [5] (MCF7, 48 h, 48hr); 5.58 ± 0.47 µg/mL (≈ 13.5 µM) in series [5] (MCF7, 72 h, 72hr); more than 50 µg/mL in series [6] (WRL68, 24 hr); more than 50 µg/mL in series [6] (WRL68, 48hr); 41.5 ± 0.54 µg/mL (≈ 100 µM) in series [6] (WRL68, 72hr). For the same molecule, the IC50 in series [7] (24 hr), in series [7] (48hr), in series [7] (72hr), in series [8] (24 hr), in [8] (48hr) and in series [8] (72hr) was more than 50 µg/mL each time. In [5], the “selectivity index values for cancer cells” value is “greater than 1”. For the same molecule, the “Selectivity index: ratio of mean IC50 in normal MCF10a over mean IC50 in MCF-7” value stood at 1.1 in series [5] (24 hr), 1.3 in [5] (48hr) and 7.4 in series [5] (72hr). In [1], the “free radical scavenging activity (in words)” value is given as “weak”. For the same molecule, the “DPPH IC50” value in series [1] was found to be 536.61 ± 6.00 µg/mL. Also, the “ferric reducing power (in words)” value in series [2] was “weak”. For the same molecule, the FRAP in [2] is reported as 20.79 ± 0.66 M Fe(II)/g. Besides, the “inhibitory effects on HIV-1 IIIB growth in C8166 cells (cytopathic effect, CPE)” value in series [9] is on record as “moderate inhibitory effects”. For the same molecule, the “cytotoxic activity against the C8166 cell line” value in [10] is reported as “cytotoxic activity”.

Take `O=C1O[C@H]([C@@H](O)CO)C(O)=C1O` [VIT C, ascorbic acid]: the “DPPH IC50” value in series [1] is 20.40 ± 0.50 µg/mL. For the same molecule, the FRAP in [2] is reported as 2603.90 ± 10.54 M Fe(II)/g.

On to `CC[C@]1(O)C[C@@H]2CN(CCc3c([nH]c4ccccc34)[C@@](C(=O)OC)(c3cc4c(cc3OC)N(C)[C@H]3[C@@](O)(C(=O)OC)[C@H](OC(C)=O)[C@]5(CC)C=CCN6CC[C@]43[C@@H]65)C2)C1` [Vinblastine], for which the IC50 in series [3] (24 hr) stood at 4.11 ± 0.06 µg/mL (≈ 5.07 µM); in [3] (48hr), 3.56 ± 0.07 µg/mL (≈ 4.39 µM); in series [3] (72 hr, Table 3) it was 0.57 ± 0.035 µg/mL (≈ 0.703 µM); in series [4] (HL-60, 24 h, 24 hr), 5.91 ± 0.31 µg/mL (≈ 7.29 µM); in series [4] (HL-60, 48 h, 48hr), 4.81 ± 0.19 µg/mL (≈ 5.93 µM); in series [4] (HL-60, 72 h, 72hr), 2.36 ± 0.08 µg/mL (≈ 2.91 µM). For the same molecule, the concentration for half-maximal inhibition (IC50) in series [4] (HL-60, 72 h, 72 hr, Table 3) was 5 ± 0.01 µg/mL (≈ 6.17 µM); in series [5] (MCF7, 24 h, 24 hr), 14.6 ± 0.16 µg/mL (≈ 18 µM); in series [5] (MCF7, 48 h, 48hr) it was 7.57 ± 0.5 µg/mL (≈ 9.33 µM); in [5] (MCF7, 72 h, 72hr), 5.16 ± 0.42 µg/mL (≈ 6.36 µM); in series [6] (WRL68, 24 hr) it was more than 50 µg/mL; in [6] (WRL68, 48hr), more than 50 µg/mL. For the same molecule, the IC50 in series [6] (WRL68, 72hr) was more than 50 µg/mL; in series [7] (24 hr), more than 50 µg/mL; in [7] (48hr) it was more than 50 µg/mL; in series [7] (72hr), more than 50 µg/mL; in series [8] (24 hr), more than 50 µg/mL; in series [8] (48hr) it was more than 50 µg/mL. The IC50 in series [8] (72hr) is more than 50 µg/mL.

In the case of `COc1cc([C@@H](c2cc(OC)c3c(c2)OCO3)[C@@H]2COC(=O)[C@H]2C)cc(OC)c1OC` [peperomin B], in series [9], the “inhibitory effects on HIV-1 IIIB growth in C8166 cells (cytopathic effect, CPE)” value is listed as “moderate inhibitory effects”. The “cytotoxic activity against the C8166 cell line” value in series [10] is given as “cytotoxic activity”.
